Reference: patent US5955325A, “Method for producing sulfated lactosamine oligosaccharide” (Seikagaku Kogyo Kabushiki Kaisha, priority 1996, dated 1999)
Entries after “also recorded” stand apart in the source; their conditions may differ. One block for each molecule: values may come before it.

Assays:
[1] = tested on: chondroitin 6-sulfotransferase (C6ST); test: Sulfotransferase activity measured with various glycosaminoglycan substrates and activators; assay type: biochemical, chick; details: for Transfer of sulfate group to glycosaminoglycan substrate by C6ST, in words: 25 nmol glycosaminoglycan, [35S]PAPS, 37° C., 20 minutes
Description: In the purification steps, the sulfotransferase activity was measured as follows. The reaction solution had the following composition.
The activity was measured for various glycosaminoglycans as the substrate, by using 25 nmol of glycosaminoglycans (as an amount of galactosamine for chondroitin sulfate and dermatan sulfate, or as an amount of glucosamine for heparan sulfate and keratan sulfate) in place of chondroitin.
The reaction solution was incubated at 37° C. for 20 minutes in a reaction tube, and then the reaction was terminated by immersing the reaction tube in boiling water for 1 minute. After the termination of the reaction, 0.1 μmol of chondroitin sulfate A (as an amount of glucuronic acid) was added as a carrier, and three volumes of ethanol containing 1.3% potassium acetate was added thereto to precipitate ^35 S-labeled polysaccharide. The mixture was centrifuged at 10,000× g for 10 minutes to obtain a precipitate which was then dissolved in 70 μl of water. An aliquot (50 μl) of the obtained solution was injected into a desalting column equilibrated with 0.1 M NH4 HCO3, and eluted fractions containing the ^35 S-labeled polysaccharide were collected. To an aliquot (200 μl) of an obtained collected fraction, 1 ml of a scintillation cocktail (Clearsol, produced by nacalai tesque) was added to measure ^35 S-radioactivity. Thus incorporation of ^35 S into the polysaccharide was measured.
An aliquot (400 μl) was dispensed from the residual solution, to which 800 μl of ethanol containing 1.3% potassium acetate was added, followed by mixing. The mixture was placed on ice for 30 minutes, followed by centrifugation at 10,000× g for 10 minutes to precipitate the ^35 S-labeled polysaccharide. The precipitate was dissolved in 25 μl of a buffer containing 0.1 mg/ml of BSA, 0.05 M Tris-acetate, pH 7.5, and 10 milliunits of chondroitinase ACII (originating from Arthrobacter aurescens, produced by Seikagaku Corporation) to perform a reaction at 37° C. for 2 hours. The solution after the reaction was spotted onto Whatman No. 1 filter paper together with 2-acetamido-2-deoxy-3-O-(β-D-gluco-4-enopyranosyluronic acid)-6-O-sulfo-D-galactose (ΔDi-6S) and 2-acetamido-2-deoxy-3-O-(β-D-gluco-4-enopyranosyluronic acid)-4-O-sulfo-D-galactose (ΔDi-4S) (each 0.1 μmol, each produced by Seikagaku Corporation), followed by development for 20 hours with 1-butanol/acetic acid/1 M ammonium hydroxide (2:3:1 (V/V/V)).
(§1) Positions of ΔDi-6S and ΔDi-4S were inspected by using an ultraviolet lamp respectively. Portions corresponding to them were excised from the filter paper respectively, and were then placed in a scintillator prepared by dissolving 5 g of diphenyloxazole and 0.25 g of dimethyl-1,4-bis(2-(5-phenyloxazole))benzene in 1 L of toluene to measure radioactivity. […] According to incorporation of ^35 S into ΔDi-6S and ΔDi-4S, activities of chondroitin 6-sulfotransferase and chondroitin 4-sulfotransferase were calculated respectively. The activity to catalyze transfer of 1 pmol sulfate group/minute was defined as 1 unit.

[2] = tested on: chondroitin 6-sulfotransferase; test: Transfer reaction of sulfate group (35SO4) to lactosamine oligosaccharides by purified sulfotransferase; assay type: biochemical, chick; details: for Incorporation of 35S: 0.025 μmol oligosaccharide acceptor, 25 pmol [35S]PAPS, 0.09 μg purified C6ST, 37° C., 60 minutes, pH 6.8; for Incorporation (transfer) of sulfate group into the oligosaccharide, in words: acceptor for chondroitin 6-sulfotransferase, Superdex 30 gel filtration, 35S radioactivity
Description: Specifically, the transfer reaction of sulfate group (^35 SO4 was used as sulfate group in order to confirm sulfation) to various lactosamine oligosaccharides by using sulfotransferase was performed in accordance with the following method. A standard reaction mixture was a solution containing 2.5 μmol of imidazole-HCl (pH 6.8), 0.25 μmol of CaCl2, 0.1 μmol of dithiothreitol, 0.025 μmol of various lactosamine oligosaccharides, 25 pmol of [^35 S]PAPS (about 2.5×10^5 cpm), and 0.09 μg of purified chondroitin 6-sulfotransferase in a final volume of 50 μl. The reaction mixture was subjected to the reaction at 37° C. for 60 minutes in a reaction tube. The reaction was terminated by immersing the reaction tube in boiling water for 1 minute. After the termination of the reaction, lactosamine oligosaccharide (sulfated lactosamine oligosaccharide) to which ^35 SO4 had been transferred was separated from free ^35 SO4 and [^35 S]PAPS by means of gel filtration chromatography. A fraction (1 ml) was collected to measure the radioactivity.
The retention time of the sulfated lactosamine oligosaccharide was faster by 2 to 3 minutes than the retention time (indicated by arrows shown in FIG. 1) of the lactosamine oligosaccharide used (lactosamine oligosaccharide before sulfation (acceptor)). […] A peak of sulfated LN partially overlapped with those of free ^35 SO4 and [^35 S]PAPS. A radioactivity peak (indicated by a horizontal bar in FIG. 1A) of a product produced from LN was subjected to paper electrophoresis. As a result, the sulfated LN was separated from ^35 SO4 and [^35 S]PAPS. Therefore, incorporation of sulfate group (^35 SO4) into LN was calculated after the paper electrophoresis.

[3] = Specific activity of purified chondroitin 6-sulfotransferase (35S incorporation into ΔDi-6S and ΔDi-4S); assay type: biochemical; details: chondroitin substrate
Description: In the purification steps, the sulfotransferase activity was measured as follows. The reaction solution had the following composition. Namely, the reaction solution (50 μl) contained 2.5 μmol of imidazol-HCl, pH 6.8, 1.25 μg of protamine hydrochloride, 0.1 μmol of dithiothreitol,25 nmol (as an amount of glucuronic acid) of chondroitin (produced by Seikagaku Corporation), 50 pmol of [^35 S]PAPS (adenosine 3'-phosphate, 5'-phosphosulfate), and the enzyme.
The reaction solution was incubated at 37° C. for 20 minutes in a reaction tube, and then the reaction was terminated by immersing the reaction tube in boiling water for 1 minute. […] To an aliquot (200 μl) of an obtained collected fraction, 1 ml of a scintillation cocktail (Clearsol, produced by nacalai tesque) was added to measure ^35 S-radioactivity. Thus incorporation of ^35 S into the polysaccharide was measured. […]
as §1, with “The activity to catalyze transfer of 1 pmol sulfate group/minute was defined as 1 unit.” left out

Molecule: protamine
Effect on the activity of C6ST [1]: increased

Molecule: dermatan sulfate
Transfer of sulfate group to glycosaminoglycan substrate by C6ST, in words [1]: only scarcely transferred

Molecule: CC(=O)N[C@H]1[C@H](O[C@H]2[C@@H](O)[C@@H](CO)O[C@@H](O[C@H]3[C@H](O)[C@@H](NC(C)=O)C(O)O[C@@H]3CO)[C@@H]2O)O[C@H](CO)[C@@H](O[C@@H]2O[C@H](CO)[C@H](O)[C@H](O)[C@H]2O)[C@@H]1O (stereo partly shown) [L1L1, Galβ1--4GlcNAcβ1--3Galβ1--4GlcNAc]
Incorporation of 35S [2]: 0.031 pmol/minute/μg protein | Incorporation (transfer) of sulfate group into the oligosaccharide, in words [2]: observed

Molecule: chondroitin
Transfer of sulfate group to glycosaminoglycan substrate by C6ST, in words [1]: transfers the sulfate group

Molecule: [Cl][Mn][Cl] [MnCl2]
Effect on the activity of C6ST [1]: increased

Molecule: CC(=O)NC1C(O)CC(OC2C(O)C(CO)OC(OC3C(CO)OC(O)C(NC(C)=O)C3OC3OC(C)C(O)C(O)C3O)C2O)(C(=O)O)OC1C(O)C(O)CO (stereo not shown) [SLe^x, NeuAcα2--3Galβ1--4(Fucα1-3)GlcNAc]
Incorporation (transfer) of sulfate group into the oligosaccharide, in words [2]: no radioactivity was detected; also recorded: not detected

Molecule: chondroitin sulfate C
Transfer of sulfate group to glycosaminoglycan substrate by C6ST, in words [1]: transfers the sulfate group

Molecule: chondroitin sulfate
Transfer of sulfate group to glycosaminoglycan substrate by C6ST, in words [1]: transfers the sulfate group

Molecule: keratan sulfate
Transfer of sulfate group to glycosaminoglycan substrate by C6ST, in words [1]: transfers the sulfate group

Continued, in another order:

Transfer of sulfate group to glycosaminoglycan substrate by C6ST, in words [1]: only scarcely transferred
Molecule: chondroitin sulfate E

Incorporation of 35S [2]: 0.022 pmol/minute/μg protein | Incorporation (transfer) of sulfate group into the oligosaccharide, in words [2]: observed
Molecule: CC(=O)NC1C(O)OC(CO)C(OC2OC(CO)C(O)C(OC3(C(=O)O)CC(O)C(NC(C)=O)C(C(O)C(O)CO)O3)C2O)C1O (stereo not shown) [SLN, NeuAcα2--3Galβ1--4GlcNAc]

Incorporation of 35S [2]: 0.012 pmol/minute/μg protein | Incorporation (transfer) of sulfate group into the oligosaccharide, in words [2]: observed
Molecule: CC(=O)N[C@H]1C(O)O[C@H](CO)[C@@H](O[C@@H]2O[C@H](CO)[C@H](O)[C@H](O)[C@H]2O)[C@@H]1O (stereo partly shown) [LN, Galβ1--4GlcNAc]

Transfer of sulfate group to glycosaminoglycan substrate by C6ST, in words [1]: transfers the sulfate group
Molecule: chondroitin sulfate A

Transfer of sulfate group to glycosaminoglycan substrate by C6ST, in words [1]: only scarcely transferred
Molecule: heparan sulfate

Incorporation of 35S [2]: 0.034 pmol/minute/μg protein | Incorporation (transfer) of sulfate group into the oligosaccharide, in words [2]: observed
Molecule: CC(=O)NC1C(O)OC(CO)C(OC2OC(CO)C(O)C(OC3OC(CO)C(OC4OC(CO)C(O)C(OC5(C(=O)O)CC(O)C(NC(C)=O)C(C(O)C(O)CO)O5)C4O)C(O)C3NC(C)=O)C2O)C1O (stereo not shown) [SL1L1, NeuAcα2--3Galβ1--4GlcNAcβ1--3Galβ1--4GlcNAc]

Incorporation of 35S [2]: 0.48 pmol/minute/μg protein | Incorporation (transfer) of sulfate group into the oligosaccharide, in words [2]: observed
Molecule: CC(=O)NC1C(O)OC(COS(=O)(=O)O)C(OC2OC(COS(=O)(=O)O)C(O)C(OC3OC(COS(=O)(=O)O)C(OC4OC(CO)C(O)C(OC5(C(=O)O)CC(O)C(NC(C)=O)C(C(O)C(O)CO)O5)C4O)C(O)C3NC(C)=O)C2O)C1O [SL2L4, NeuAcα2--3Galβ1--4GlcNAc(6S)β1--3Gal(6S)β1--4GlcNAc(6S)]

Incorporation of 35S [2]: 0.29 pmol/minute/μg protein | Incorporation (transfer) of sulfate group into the oligosaccharide, in words [2]: observed
Molecule: CC(=O)N[C@H]1[C@H](O[C@H]2[C@@H](O)[C@@H](COS(=O)(=O)O)O[C@@H](O[C@H]3[C@H](O)[C@@H](NC(C)=O)C(O)O[C@@H]3COS(=O)(=O)O)[C@@H]2O)O[C@H](COS(=O)(=O)O)[C@@H](O[C@@H]2O[C@H](CO)[C@H](O)[C@H](O)[C@H]2O)[C@@H]1O (stereo partly drawn) [L2L4, Galβ1--4GlcNAc(6S)β1--3Gal(6S)β1--4GlcNAc(6S)]

Ratio of activities of chondroitin 4-sulfotransferase/chondroitin 6-sulfotransferase ([3]; purified enzyme): 0.02
B1: chondroitin 6-sulfotransferase: sulfotransferase purified from serum-free culture medium of chick chondrocyte (protein, UniProt Q92179 1-458, looked up)
Carbohydrate sulfotransferase …: MERRSALPQDFREVLHCLKMRSKYAVLLVFVVGLVIIEKENNFISRVSDKLKQSPQVLPEANETEASPVQAENGSLASLRQLDTAFSQLRTRLRNVTLQLAGELGIAAPEPRRHVLLMATTRTGSSFVGEFFNQQGNIFYLFEPLWHIERTVTFEPGGANAVGSALVYRDVLQQLLLCDLYILESFISPAPEEHLTAALFRRGSSHSLCEEPVCTPSLKKVFEKYHCKNRRCGPLNITLAAEACRRKQHMALKTVRIRQLEFLQPLAEDPRLDLRIIQLVRDPRAVLVSRMVAFSGKYESWKKWAAEGEAPLQEDEVQRLRGNCESIRLSAELGLRQPRWLRGRYMLVRYEDVARAPLRKALEMYRFAGIHPTPQVEEWIRANTQAPQDSNGIYSTQKNSSEQFEKWRFSIPFKLAQVVQDACEPAMRLFGYKLASSAQELTNRSLSLLEEGPPTRIT
Specific activity of chondroitin 6-sulfotransferase ([3]; 1 unit = transfer of 1 pmol sulfate group/minute): 4.3×10^5 units/mg
